Measurements taken from ChEMBL document CHEMBL4052631, “Synthesis of selective 11β-HSD1 inhibitors based on dammarane scaffold” (Eur J Med Chem, 2017).

Key:
[1] = biological target: T1, 11-beta-hydroxysteroid dehydrogenase 1 (Homo sapiens, UniProt P28845); experiment: Inhibition of full-length human 11beta-HSD1 expressed in HEK293 microsomal fraction using [3H]cortisone as substrate after 2 hr by scintillation proximity assay
Target sequence in this assay (P28845 whole entry): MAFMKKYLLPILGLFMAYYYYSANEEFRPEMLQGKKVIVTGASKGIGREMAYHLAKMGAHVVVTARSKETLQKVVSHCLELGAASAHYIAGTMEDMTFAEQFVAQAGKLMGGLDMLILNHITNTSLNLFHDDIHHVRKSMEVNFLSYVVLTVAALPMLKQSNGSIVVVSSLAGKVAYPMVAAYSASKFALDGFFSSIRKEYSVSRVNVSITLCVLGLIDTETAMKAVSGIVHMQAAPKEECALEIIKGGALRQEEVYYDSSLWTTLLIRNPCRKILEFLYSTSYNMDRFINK

[2] = biological target: T1, 11-beta-hydroxysteroid dehydrogenase 1; conditions: HEK293, at 1 µM
Target sequence in this assay (P28845 whole entry, looked up): as the sequence (P28845 whole entry) above
Description: Inhibition of full-length human 11beta-HSD1 expressed in HEK293 microsomal fraction at 1 uM using [3H]cortisone as substrate after 2 hr by scintillation proximity assay relative to control

[3] = biological target: 11-beta-hydroxysteroid dehydrogenase 1 (Mus musculus) (UniProt P50172); conditions: at 1 µM
Chain of 11-beta-hydroxysteroid dehydrogenase 1 (Mus musculus) (P50172 whole entry, looked up): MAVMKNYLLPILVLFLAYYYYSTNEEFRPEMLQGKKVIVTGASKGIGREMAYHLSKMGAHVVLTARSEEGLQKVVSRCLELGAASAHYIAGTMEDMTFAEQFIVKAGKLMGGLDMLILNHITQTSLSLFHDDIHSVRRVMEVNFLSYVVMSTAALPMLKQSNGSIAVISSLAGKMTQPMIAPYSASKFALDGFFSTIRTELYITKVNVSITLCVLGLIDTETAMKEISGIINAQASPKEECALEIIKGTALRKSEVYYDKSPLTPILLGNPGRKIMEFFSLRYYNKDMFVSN
Description: Inhibition of full-length mouse 11beta-HSD1 expressed in HEK293 microsomal fraction at 1 uM using [3H]cortisone as substrate after 1 hr by scintillation proximity assay relative to control

[4] = biological target: T2, 11-beta-hydroxysteroid dehydrogenase 1 (Mus musculus, UniProt P50172); experiment: Inhibition of full-length mouse 11beta-HSD1 expressed in HEK293 microsomal fraction […] after 1 hr by scintillation proximity assay
T2 sequence (P50172 whole entry): as the sequence (P50172 whole entry, looked up) above

[5] = biological target: T3, 11-beta-hydroxysteroid dehydrogenase type 2 (Mus musculus, UniProt P51661); experiment: Inhibition of full-length mouse 11beta-HSD2 expressed in HEK293 microsomal fraction […] after 1 hr by scintillation proximity assay
T3 sequence (P51661 whole entry): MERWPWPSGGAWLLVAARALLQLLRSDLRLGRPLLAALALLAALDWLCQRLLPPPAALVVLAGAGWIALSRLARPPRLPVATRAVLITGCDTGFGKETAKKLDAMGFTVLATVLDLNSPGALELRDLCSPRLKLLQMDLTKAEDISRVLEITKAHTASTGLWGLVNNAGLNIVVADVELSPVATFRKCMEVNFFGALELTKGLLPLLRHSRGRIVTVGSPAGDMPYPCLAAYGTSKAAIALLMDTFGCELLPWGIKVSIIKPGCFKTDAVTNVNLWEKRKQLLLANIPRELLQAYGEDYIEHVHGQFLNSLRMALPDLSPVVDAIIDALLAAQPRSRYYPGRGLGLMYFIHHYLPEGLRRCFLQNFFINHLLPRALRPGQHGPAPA

[6] = biological target: T4, 11-beta-hydroxysteroid dehydrogenase type 2 (Homo sapiens, UniProt P80365); experiment: Inhibition of full-length human 11beta-HSD2 expressed in HEK293 microsomal fraction using [3H]cortisone as substrate after 2 hr by scintillation proximity assay; assay type: cell-based
T4 sequence (P80365 whole entry): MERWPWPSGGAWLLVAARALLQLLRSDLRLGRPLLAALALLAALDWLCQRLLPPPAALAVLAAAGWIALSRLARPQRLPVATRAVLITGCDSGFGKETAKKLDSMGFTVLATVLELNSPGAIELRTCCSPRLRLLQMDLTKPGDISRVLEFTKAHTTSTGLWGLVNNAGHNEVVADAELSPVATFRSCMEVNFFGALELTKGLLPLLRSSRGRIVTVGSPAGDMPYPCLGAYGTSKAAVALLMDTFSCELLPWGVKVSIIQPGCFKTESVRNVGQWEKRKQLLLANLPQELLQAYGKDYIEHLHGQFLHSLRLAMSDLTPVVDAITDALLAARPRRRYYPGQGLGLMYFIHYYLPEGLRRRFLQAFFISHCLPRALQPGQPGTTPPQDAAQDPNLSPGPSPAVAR

[7] = biological target: T1, 11-beta-hydroxysteroid dehydrogenase 1; experiment: Inhibition of human N-terminal His-tagged 11beta-HSD1 expressed in Escherichia coli using cortisol as substrate by fluorescence-based assay
Target sequence in this assay (P28845 whole entry): as the sequence (P28845 whole entry) above

[8] = biological target: T2, 11-beta-hydroxysteroid dehydrogenase 1; experiment: Inhibition of mouse N-terminal His-tagged 11beta-HSD1 expressed in Escherichia coli using cortisol as substrate by fluorescence-based assay

Row | Structure (SMILES) | inhibition [3] [%] | also measured
1 | CC(=O)O[C@H]1CC[C@]2(C)[C@H]3C[C@@H](OC(C)=O)[C@@H]4[C@@H](C(C)=O)CC[C@@]4(C)[C@]3(C)CC[C@H]2C1(C)C | 40.9 | IC50 [1]: 244 nM; inhibition [2]: 69.4%
2 | CC1(C)[C@@H](O)CC[C@]2(C)[C@H]3C[C@@H](O)[C@@H]4[C@H](O)CC[C@@]4(C)[C@]3(C)CC[C@@H]12 | 47 | 
3 | COC(=O)[C@H]1CC[C@]2(C)[C@@H]1[C@H](O)C[C@@H]1[C@@]3(C)CC[C@H](O)C(C)(C)[C@@H]3CC[C@]12C | 7.69 | 
4 | CC(=O)O[C@H]1CC[C@]2(C)[C@H]3C[C@@H](OC(C)=O)[C@@H]4C(=O)CC[C@@]4(C)[C@]3(C)CC[C@H]2C1(C)C | 12.5 | 
5 | CC1(C)[C@@H](O)CC[C@]2(C)[C@H]3C[C@@H](O)[C@@H]4[C@@H](Cl)CC[C@@]4(C)[C@]3(C)CC[C@@H]12 | 35.8 | 
6 | CC(=O)O[C@H]1CC[C@]2(C)[C@H]3C[C@@H](O)[C@@H]4[C@@H](C(C)=O)CC[C@@]4(C)[C@]3(C)CC[C@H]2C1(C)C | 60.9 | IC50 [4]: 454 nM; IC50 [5]: > 10000 nM
7 | CC(=O)O[C@H]1CC[C@]2(C)[C@H]3C[C@@H](OC(C)=O)[C@@H]4[C@@H](C(=O)CCCC(C)C)CC[C@@]4(C)[C@]3(C)CC[C@H]2C1(C)C | 10.8 | IC50 [1]: 101 nM; inhibition [2]: 81.1%
8 | CC1(C)[C@@H](O)CC[C@]2(C)[C@H]3C[C@@H](O)[C@]45O[C@H]4CC[C@@]5(C)[C@]3(C)CC[C@@H]12 | 16.9 | 
9 | CC(=O)O[C@H]1CC[C@]2(C)[C@H]3C[C@@H](OC(C)=O)[C@@H]4[C@@H](O)CC[C@@]4(C)[C@]3(C)CC[C@H]2C1(C)C | 13.3 | 
10 | CC(=O)O[C@H]1CC[C@]2(C)[C@H]3C[C@@H](O)[C@@H]4[C@@H](O)CC[C@@]4(C)[C@]3(C)CC[C@H]2C1(C)C | 79 | IC50 [1]: 994 nM; IC50 [4]: 213 nM; inhibition [2]: 51.6%; IC50 [5]: > 10000 nM; IC50 [6]: > 10000 nM
11 | CCC(=O)CC[C@]1(C)C(=O)[C@H](OC(C)=O)C[C@@H]2[C@@]3(C)CC[C@H](OC(C)=O)C(C)(C)[C@@H]3CC[C@]21C | 13.3 | 
12 | CC(C)(O)[C@@H]1CC[C@]2(C)[C@H](C[C@@H](O)[C@@H]3[C@@H](O)CC[C@]32C)[C@@]1(C)CCCO | 16.1 | 
13 | CC(=O)[C@H]1CC[C@]2(C)[C@@H]1[C@H](O)C[C@@H]1[C@@]3(C)CC[C@H](O)C(C)(C)[C@@H]3CC[C@]12C | 27.1 | 
14 | CC1(C)[C@@H](O)CC[C@]2(C)[C@H]3C[C@@H](O)[C@@H]4[C@@H](CO)CC[C@@]4(C)[C@]3(C)CC[C@@H]12 | 57.9 | IC50 [4]: 476 nM; IC50 [5]: > 10000 nM
15 | CC1(C)[C@@H](O)CC[C@]2(C)[C@H]3C[C@@H](O)[C@@H]4[C@@H](C(=O)O)CC[C@@]4(C)[C@]3(C)CC[C@@H]12 | 15.1 | 
16 | CC1(C)[C@@H](O)CC[C@]2(C)[C@H]3C[C@@H](O)C4=CCC[C@@]4(C)[C@]3(C)CC[C@@H]12 | 33.2 | 
17 | CC1(C)[C@@H](O)CC[C@]2(C)[C@H]3CC(=O)C4=CCC[C@@]4(C)[C@]3(C)CC[C@@H]12 | 47.4 | IC50 [1]: 1050 nM; inhibition [2]: 50.2%; IC50 [6]: 9580 nM
18 | CC1=CC[C@@]2(CC1O)[C@@H](C(=O)O)CC[C@H]2C(C)C (stereo partly drawn) |  | IC50 [7]: 13 nM; IC50 [8]: 460 nM
19 | CC1(C)CCC[C@]2(C)[C@H]3C[C@@H](O)[C@@H]4[C@@H](O)CC[C@@]4(C)[C@]3(C)CC[C@@H]12 | 6.25 | 

Row | Structure (SMILES) | inhibition [3] [%] | also measured
20 | CC1(C)[C@@H](O)CC[C@]2(C)[C@H]3C[C@H]4OC[C@H]5CC[C@](C)([C@@H]54)[C@]3(C)CC[C@@H]12 | 44.9 | 
21 | CC1=C2CC[C@]3(C)[C@@H]2[C@@H](C[C@@H]2[C@@]4(C)CC[C@H](O)C(C)(C)[C@@H]4CC[C@]23C)OCO1 | 15.5 | 
22 | CC(=O)O[C@H]1CC[C@]2(C)[C@H]3C[C@@H](OC(C)=O)C4=CCC[C@@]4(C)[C@]3(C)CC[C@H]2C1(C)C | 15.4 | 
23 | CCC(=O)CC[C@]1(C)C(=O)[C@H](O)C[C@@H]2[C@@]3(C)CC[C@H](OC(C)=O)C(C)(C)[C@@H]3CC[C@]21C | 11.5 | IC50 [1]: 729 nM; inhibition [2]: 54.3%; IC50 [6]: 6260 nM
24 | CC(=O)O[C@H]1CC[C@]2(C)[C@H]3C[C@@H](OC(C)=O)[C@@H]4[C@@H](C(=O)CF)CC[C@@]4(C)[C@]3(C)CC[C@H]2C1(C)C | 11.9 | 
25 | CC(C)CCCC(=O)[C@H]1CC[C@]2(C)[C@@H]1[C@H](O)C[C@@H]1[C@@]3(C)CC[C@H](O)C(C)(C)[C@@H]3CC[C@]12C | 17.3 | 
26 | CC(=O)[C@]1(O)CC[C@]2(C)[C@@H]1[C@H](O)C[C@@H]1[C@@]3(C)CC[C@H](O)C(C)(C)[C@@H]3CC[C@]12C | 65.7 | IC50 [4]: 601 nM; IC50 [5]: > 10000 nM
27 | CC(=O)O[C@H]1CC[C@]2(C)[C@H]3C[C@@H](OC(C)=O)[C@@H]4[C@@H](C(=O)CO)CC[C@@]4(C)[C@]3(C)CC[C@H]2C1(C)C | 20.1 | IC50 [1]: 488 nM; inhibition [2]: 62.6%
28 | CC1(C)[C@@H](O)CC[C@]2(C)[C@H]3C[C@@H](O)[C@@H]4[C@@H](C(=O)CO)CC[C@@]4(C)[C@]3(C)CC[C@@H]12 | 32.2 | 
29 | CO[C@H]1CC(=O)[C@]2(C)[C@@H]1[C@H](OC(C)=O)C[C@@H]1[C@@]3(C)CC[C@H](O)C(C)(C)[C@@H]3CC[C@]12C |  | IC50 [4]: 400 nM
30 | CC(=O)O[C@H]1CC[C@]2(C)[C@H]3C[C@@H](OC(C)=O)[C@@H]4[C@@H](Cl)CC[C@@]4(C)[C@]3(C)CC[C@H]2C1(C)C | 8.02 | 
31 | CC1(C)[C@@H](O)CC[C@]2(C)[C@H]3C[C@@H](O)[C@@H]4CCC[C@@]4(C)[C@]3(C)CC[C@@H]12 | 58.4 | IC50 [4]: 592 nM; IC50 [5]: > 100000 nM
32 | COCO[C@H]1CC[C@]2(C)[C@H]3C[C@@H](OCOC)[C@@H]4[C@@H](C(C)=O)CC[C@@]4(C)[C@]3(C)CC[C@H]2C1(C)C | 11.5 | 
33 | CC1(C)[C@@H](O)CC[C@]2(C)[C@H]3C[C@@H](O)[C@@H]4[C@@H](O)CC[C@@]4(C)[C@]3(C)CC[C@@H]12 | 28.2 | 
34 | CC(=O)OCO[C@@H]1C[C@@H]2[C@@]3(C)CC[C@H](O)C(C)(C)[C@@H]3CC[C@@]2(C)[C@]2(C)CCC(=O)[C@@H]12 | 20.9 | 
35 | CC1(C)C=CC[C@]2(C)[C@H]3C[C@@H](O)[C@@H]4[C@@H](O)CC[C@@]4(C)[C@]3(C)CC[C@@H]12 | 40.9 | 
36 | CC(C)(O)[C@@H]1CC[C@]2(C)[C@H](C[C@@H](O)[C@@H]3[C@@H](O)CC[C@]32C)[C@@]1(C)CCC(=O)O | 20.8 | 
37 | CC(=O)[C@H]1CC[C@]2(C)[C@@H]1[C@H](O)C[C@@H]1[C@@]3(C)CCC(=O)OC(C)(C)[C@@H]3CC[C@]12C | 27.6 | 
